Measured values as given in patent US20180310561A1 (priority 2015, published 2018).

Key:
[1] = tested on: Botrytis cinerea; test: Activity against the grey mold Botrytis cinerea in the microtiterplate test; type: cell-based; details: relative growth vs active compound-free control (100%), MTP measured at 405 nm 7 days after inoculation
[2] = tested on: Septoria tritici; test: Activity against leaf blotch on wheat caused by Septoria tritici (microtiter plate); type: cell-based; details: relative growth vs active compound-free control (100%), MTP measured at 405 nm 7 days after inoculation
[3] = tested on: Leptosphaeria nodorum; test: Activity against wheat leaf spots caused by Leptosphaeria nodorum (microtiter plate); type: cell-based; details: relative growth vs active compound-free control (100%), MTP measured at 405 nm 7 days after inoculation
[4] = tested on: Fusarium culmorum; test: Green house: control of culm rot on pearl millet caused by Fusarium culmorum; type: in vivo; details: 63 ppm spray on pearl millet seedlings; inoculated 7 days later; % diseased leaf area assessed after 6 days; untreated control 90
Procedure: The spray solutions were prepared in several steps:
The stock solution were prepared: a mixture of acetone and/or dimethylsulfoxide and the wetting agent/emulsifier Wettol, which is based on ethoxylated alkylphenoles, in a relation (volume) solvent-emulsifier of 99 to 1 was added to 25 mg of the compound to give a total of 5 ml. Water was then added to total volume of 100 ml.
This stock solution was diluted with the described solvent-emulsifier-water mixture to the given concentration.
Pot-grown pearl millet seedlings were sprayed to run-off with an aqueous suspension, containing the concentration of active ingredient or their mixture as described below.The plants were allowed to air-dry. Seven days later the plants were inoculated with an spore suspension of Fusarium culmorum in a aqueous biomalt solution. Then the trial plants were immediately transferred to a humid chamber. After 6 days at 23-25° C. and a relative humidity close to 100% the extent of fungal attack on the leaves was visually assessed as % diseased leaf area.

[5] = tested on: Pyricularia oryzae; type: cell-based; details: relative growth vs active compound-free control (100%), MTP measured at 405 nm 7 days after inoculation
[6] = tested on: Alternaria solani; test: Activity against early blight caused by Alternaria solani (microtiter plate); type: cell-based; details: relative growth vs active compound-free control (100%), MTP measured at 405 nm 7 days after inoculation

Cc1ccc(C2=CC(C)(C)Cc3ccccc32)cc1C
Growth (%) at 32 ppm Botottis cinerea [1]: 84% | Growth (%) at 32 ppm Septona triad [2]: 93%

Cc1cc(C2=NC(C)(C)Cc3c(F)cccc32)cnc1C [drawing 1380]
Growth (%) at 31 ppm Leptosphaeria nodorum [3]: 39%

Cc1cc(C2=NC(C)(C)Cc3c(Br)cccc32)cnc1C [I-1, 5-Bromo-1-(5,6-dimethyl-3-pyridyl)-3,3-dimethyl-4H-isoquinoline]
Growth (%) at 32 ppm Botottis cinerea [1]: 0% | Disease (%) at 63 ppm [4]: 53% | Growth (%) at 32 ppm Septona triad [2]: 0%

Cc1cc(C2=NC(C)(C)Cc3c(F)cccc32)cnc1C [drawing 1382]
Disease (%) at 63 ppm [4]: 88%

Cc1cc(C2=NC(C)(C)Cc3ccccc32)cnc1C
Growth (%) at 31 ppm Pyricularia [5]: 23% | Growth (%) at 31 ppm Leptosphaeria nodorum [3]: 72% | Growth (%) at 31 ppm Alternaria solanioryzae [6]: 47%
